The results in this text go back to patent publication US12161738B2, “Deodorant compositions” (The Procter & Gamble Company, priority 2019, dated 2024).

Data set [1] in a line: pH of various magnesium salts in a water solution. Type of data set: physicochemical. The conditions noted are these: 12% in water. On the procedure: The pH of magnesium carbonate, partially carbonated magnesium hydroxide, magnesium hydroxide and magnesium oxide were taken in a water solution. The pH values were recorded as follows in Table 4.
Data set [2] deals with Corynebacterium mucofaciens (clinical isolate). Nature of the data set: Tier 1 Anaerobic MIC Assay. Type of data set: cell-based. The conditions noted are these: raw material, BHI with 1% Tween 80, 37° C. overnight, O.D. 600. The protocol: (§1) Tier 1 Anaerobic MIC Assay
(§2) The data in Table 1 above was generated with the following test method. The purpose of this assay is to determine if a compound or formulation has an antimicrobial effect in vitro.
(§3) Procedure: (All procedures performed in anaerobic chamber except where noted)
(§4) Incubator at 37° C.; 20-200 ul 12 channel pipette; 5-50 ul 12 channel pipette; 1250 ul 8 channel Thermo Scientific Matrix pipette; 96 well plate shaker (located in incubator); Beckman Coulter deep well cap mat #267005; Beckman Coulter deep 96 well plates #267007; Falcon 96 well tissue culture plates #353072; Vortexer; Culture tubes/caps Disposable sterile gloves; Sterile petri dishes; Standard microbiological lab equipment (sterile pipettes, syringes, tips, loops, etc.); Glass bottles/flasks for media; Autoclave; Parafilm; Spectrophotometer.
(§5) BHI agar supplemented with 1% Tween 80
(§6) BHI media supplemented with 1% Tween 80
Corynebacterium mucofaciens (clinical isolate)
(§7) Prior to testing streak organisms for isolation on BHI with 1% Tween 80 plates, wrap with parafilm and place in 37° C. incubator. When isolated colonies appear remove one representative colony from each plate and place each in 5 ml of BHI with 1% Tween 80 media. […]
(§8) In row A of a 96 deep well plate pipette 180 ul of sterile BHI with 1% Tween 80 as a negative growth control. […] The next day read the O.D. 600 on a plate reader. […]

Data set [3] concerns Staphylococcus epidermidis (clinical isolate). In words: Tier 1 Anaerobic MIC Assay. Type of data set: cell-based. The conditions noted are these: raw material, BHI with 1% Tween 80, 37° C. overnight, O.D. 600. The protocol: as §1, §2, §3, §4, §5, §6
Staphylococcus epidermidis (clinical isolate)
as §7, §8

For the compound `O=C([O-])[O-].[Mg+2]` [Magnesium Carbonate], the “pH in water 12% Solution” value in data set [1] turned out to be 9.6.

With `[Mg+2].[OH-].[OH-]` [Magnesium Hydroxide], in data set [1], the “pH in water 12% Solution” value is 10.

For `[O]=[Mg]` [Magnesium Oxide], the “pH in water 12% Solution” value is reported as 10.8 in data set [1] and “highest pH observed” in data set [1] (listed as Magnesium oxide).

For the compound `Cc1cc(CC(C)CC(C)(C)C)n(O)c(=O)c1.NCCO` (stereo not drawn) [piroctone olamine], the “microbial inhibition concentration (MIC), C. mucofaciens” value in data set [2] is given as below 5 ppm. Further, in data set [3], the “microbial inhibition concentration (MIC), S. epidermidis” value is given as 10 ppm.
